Key:
Assay type in all cases: physicochemical
[1] = Solubility of compounds in toluene; settings: per 100 g toluene
Method: The solubility of the compounds in the toluene were determined as follows: • 1. 1000 mg toluene was placed in the transparent glass sample bottle. • 2. A certain mass of the compound was added into the toluene, and oscillated until completely dissolved. • 3. After the compound was completely dissolved, a certain mass of the compound was further added into the toluene, and oscillated. • 4. The above steps were repeated until the compound wasn't dissolved any more. • 5. The total mass of the compound added was recorded and the solubility was obtained by calculation.

[2] = Absorption spectrum, emission spectrum and extinction coefficient in toluene solution; settings: for Molar extinction coefficient of the toluene solution: at maximum absorption peak
Method: The extinction coefficients of the compounds and their absorption and emission spectrums in the solution were determined as follows: • 1. The compound with a certain amount of substance concentration in the toluene was prepared in a volumetric flask. • 2. The absorption spectrum of the solution was measured by using an ultraviolet-visible spectrophotometer (Puxi T9s) to obtain the absorption peak wavelength. • 3. The absorbance of the maximum absorption peak divided by the amount of substance concentration is the molar extinction coefficient of the compound. • 4. The emission spectrum of the solution was measured by using a fluorescent spectroscope (Hitachi, F-4700 FL Spectrophotometer) to obtain the emission peak wavelength.
(§1) The extinction coefficients of the compounds and their absorption and emission peaks in the solution and film are shown in Table 3.

[3] = Absorption and emission spectrum in spin-coated film; settings: for Red shift of the spectrum in the film relative to the solution: film vs toluene solution
Method: The Absorption and emission spectrums of the compounds in the film were determined as follows: • 1. The compound with a certain concentration in the toluene was prepared. • 2. The prepared toluene solution was dropped onto a clean glass substrate. • 3. Spin-coating, and then heating at the 80° C. for 1 min. • 4. The absorption spectrum of the film was measured by using an ultraviolet-visible spectrophotometer (Puxi T9s) to obtain the absorption peak wavelength. • 5. The emission spectrum of the film was measured by using a fluorescent spectroscope (Hitachi, F-4700 FL Spectrophotometer) to obtain the emission peak wavelength.
as §1

[4] = UV stability of compounds in toluene (absorbance decay, t80); settings: for Times t80: UV LEDs 365 nm & 255 nm, 12 cm, time until absorbance decayed to 80% of initial value
Method: The UV stability of the compounds were tested as follows:
The compound was dissolved in the toluene with a concentration of 1×10^5 mol/L. 3 mL solution was added to the cuvette with a lid and the lid was screwed on tightly, then the cuvette was placed in the ultraviolet-visible spectrophotometer to test the absorption spectrum, the absorbance of the maximum absorption peak was recorded as the initial value. The cuvette was placed at a distance of 12 cm from the UV LEDs (365 nm & 255 nm), irradiated for a period and tested its absorption spectrum, then continued to be irradiated after the test, and repeated until the absorbance decayed to 80% of its initial value, the time was recorded as t80.

Row | SMILES | Solubilities(/100 g toluene) [1] [g] | Molar extinction coefficient of the toluene solution [2] [L/mol] | Red shift of the spectrum in the film relative to the solution [3] | Times t80 [4] [min] | Absorption peak of the toluene solution [2] [nm] | Emission peak of the toluene solution [2] [nm] | Absorption peak of the film ([3]; spin-coated film on glass) [nm] | Emission peak of the film ([3]; spin-coated film on glass) [nm] | UV stability compared with the unfluorinated compound 20 ([4]; UV irradiation)
1 | CCc1cccc(CC)c1N(c1ccc(C(C)(C)C)cc1)c1cc(N(c2ccc(C(C)(C)C)cc2)c2c(CC)cccc2CC)c2ccc3c(N(c4ccc(C(C)(C)C)cc4)c4c(CC)cccc4CC)cc(N(c4ccc(C(C)(C)C)cc4)c4c(CC)cccc4CC)c4ccc1c2c43 [Compound 11] | 25.9 | 53000 | very small red shift | 257 |  |  |  |  | 
2 | Cc1cccc(C)c1N(c1cc(C(C)(C)C)cc(C(C)(C)C)c1)c1cc(N(c2cc(C(C)(C)C)cc(C(C)(C)C)c2)c2c(C)cccc2C)c2ccc3c(N(c4cc(C(C)(C)C)cc(C(C)(C)C)c4)c4c(C)cccc4C)cc(N(c4cc(C(C)(C)C)cc(C(C)(C)C)c4)c4c(C)cccc4C)c4ccc1c2c43 [Compound 7] | 4.6 | 56000 | very small red shift | 280 |  |  |  |  | 
3 | Fc1ccc(N(c2ccccc2)c2cc(N(c3ccccc3)c3ccc(F)cc3)c3ccc4c(N(c5ccccc5)c5ccc(F)cc5)cc(N(c5ccccc5)c5ccc(F)cc5)c5ccc2c3c54)cc1 [Compound 16] | >1.5 | 37000 | large red shift | 227 | 466 | 493 | 469 | 551 | greatly improved
4 | CCCCCCCCc1ccc(-c2cc(OC)ccc2N(c2cc(F)c(F)c(F)c2)c2cc(N(c3cc(F)c(F)c(F)c3)c3ccc(OC)cc3-c3ccc(CCCCCCCC)cc3)c3ccc4c(N(c5cc(F)c(F)c(F)c5)c5ccc(OC)cc5-c5ccc(CCCCCCCC)cc5)cc(N(c5cc(F)c(F)c(F)c5)c5ccc(OC)cc5-c5ccc(CCCCCCCC)cc5)c5ccc2c3c54)cc1 [Compound 24] | >10 | 70000 | very small red shift | 352 |  |  |  |  | 
